Values quoted from earlier work, collected in the PKSmart pharmacokinetics tables (Seal et al. 2025).

Key:
[1] = Lombardo et al. 2013, J Clin Pharmacol 53:178, doi 10.1177/0091270012440282; details: for Vd / clearance: in vivo, iv; for fraction unbound: plasma
[2] = Lombardo, Berellini, Obach 2018, Drug Metab Dispos 46:1466, doi 10.1124/dmd.118.082966; details: human; for MRT / Vd / clearance / half-life: in vivo, iv; for fraction unbound: plasma

SMILES | Vd ([1]; rat) | clearance ([1]; rat) | fraction unbound ([1]; rat) | MRT [2] | Vd [2] | clearance [2] | half-life [2] | Vd ([1]; dog) | clearance ([1]; dog) | fraction unbound ([1]; dog) | fraction unbound [2] | Vd ([1]; monkey) | clearance ([1]; monkey) | fraction unbound ([1]; monkey)
NC12CC3CC(CC(C3)C1)C2 | 6.4 L/kg | 19 mL/min/kg | 0.52 | 23 h | 6.6 L/kg | 4.8 mL/min/kg | 16 h | – | – | – | – | – | – | –
Nc1[nH]c(=O)ncc1F | – | – | – | 5.7 h | 0.68 L/kg | 2 mL/min/kg | 4.2 h | 0.64 L/kg | 2.4 mL/min/kg | – | – | – | – | –
COC(=O)CCc1ccc(OCC(O)CNC(C)C)cc1 (stereo unspecified) | – | – | 0.71 | 0.07 h | 1.2 L/kg | 290 mL/min/kg | 0.15 h | 3.4 L/kg | 1500 mL/min/kg | 0.62 | 0.59 | – | – | –
CCOC(=O)C1[C@@H](OC(=O)c2ccccc2)C[C@@H]2CC[C@H]1N2C (stereo partly specified) | – | – | – | 2 h | 1.6 L/kg | 13 mL/min/kg | 1.5 h | 2.68 L/kg | 42.2 mL/min/kg | – | 0.64 | – | – | –
CN(C)CCC=C1c2ccccc2CCc2ccccc21 | 11 L/kg | 71 mL/min/kg | 0.11 | 24 h | 8.7 L/kg | 6.1 mL/min/kg | 17 h | – | – | – | – | – | – | –
NC(C(=O)O)[C@@H]1CC(Cl)=NO1 (stereo partly specified) | 0.74 L/kg | 6.4 mL/min/kg | – | 12 h | 0.5 L/kg | 0.69 mL/min/kg | 9.9 h | 0.58 L/kg | 1.4 mL/min/kg | – | – | 0.61 L/kg | 2.3 mL/min/kg | –
COc1c(N2CCNC(C)C2)c(F)cc2c(=O)c(C(=O)O)cn(C3CC3)c12 (stereo unspecified) | 2.5 L/kg | 19.3 mL/min/kg | 0.75 | 11 h | 1.7 L/kg | 2.8 mL/min/kg | 10 h | 2.11 L/kg | 4.2 mL/min/kg | 0.84 | – | 1.85 L/kg | 10.2 mL/min/kg | 0.83
CCCCCNC(=O)c1coc([C@H]2[C@@H](Cc3ccccc3CCC(=O)O)[C@@H]3CC[C@H]2O3)n1 | 2.8 L/kg | 87.5 mL/min/kg | – | 11 h | 4.4 L/kg | 6.4 mL/min/kg | 22 h | 11 L/kg | 65 mL/min/kg | – | – | 5.5 L/kg | 19.1 mL/min/kg | –
C[C@H](Cn1cnc2c(N)ncnc21)OCP(=O)(O)O | – | – | – | 3.8 h | 0.83 L/kg | 3.1 mL/min/kg | 5.8 h | 0.9 L/kg | 5.9 mL/min/kg | – | 0.93 | – | 16.2 mL/min/kg | –
CC[C@@H](CO)NCCN[C@@H](CC)CO | – | – | – | 2.7 h | 1.7 L/kg | 10 mL/min/kg | 3.1 h | 3.8 L/kg | 13 mL/min/kg | – | 0.18 | – | – | –
CC[C@@]1(O)C(=O)OCc2c1cc1n(c2=O)Cc2cc3c(CN(C)C)c(O)ccc3nc2-1 | – | – | 0.747 | – | – | – | – | – | – | – | 0.65 | – | – | 0.8
O=C(O)P(=O)(O)O | – | – | – | – | 0.5 L/kg | 2.1 mL/min/kg | 4.7 h | 0.65 L/kg | 3.62 mL/min/kg | – | – | – | – | –
COc1cc2c3cc1Oc1cc(ccc1O)C[C@@H]1c4c(cc(OC)c([O-])c4Oc4ccc(cc4)C[C@@H]3N(C)CC2)CC[N+]1(C)C | – | – | – | 2.2 h | 0.45 L/kg | 3.4 mL/min/kg | 2 h | 0.37 L/kg | 3.73 mL/min/kg | – | 0.58 | – | – | –
CNCC[C@@H](Oc1ccccc1C)c1ccccc1 | 4.3 L/kg | 36 mL/min/kg | 0.11 | 1.5 h | 0.85 L/kg | 9.3 mL/min/kg | 5.2 h | – | – | – | – | – | – | –
CCn1cc(C(=O)O)c(=O)c2cc(F)c(N3CCNCC3)nc21 | 1.8 L/kg | 42.7 mL/min/kg | – | 6.2 h | 2 L/kg | 5.4 mL/min/kg | 5.1 h | – | – | – | 0.8 | – | – | –
Nc1ccn([C@@H]2O[C@H](CO)[C@@H](O)C2(F)F)c(=O)n1 | 1 L/kg | 5 mL/min/kg | 0.93 | 0.81 h | 1.5 L/kg | 32 mL/min/kg | 1 h | 1.41 L/kg | 10.8 mL/min/kg | 0.765 | 1 | 5.5 L/kg | 177 mL/min/kg | –
CN(C)CCc1c[nH]c2ccc(C[C@H]3COC(=O)N3)cc12 | 3.53 L/kg | 29.4 mL/min/kg | – | 4.6 h | 1.8 L/kg | 6.7 mL/min/kg | 3.6 h | – | – | – | – | – | – | –
COc1cccc2c1C(=O)c1c(O)c3c(c(O)c1C2=O)C[C@@](O)(C(=O)CO)C[C@@H]3O[C@H]1C[C@H](N)[C@H](I)[C@H](C)O1 | 14 L/kg | 36.6 mL/min/kg | – | 6.4 h | 53.6 L/kg | 140 mL/min/kg | 10.3 h | 2.6 L/kg | 6.5 mL/min/kg | – | – | 14 L/kg | 43.3 mL/min/kg | –
CC(CC(c1ccccc1)c1ccccc1)NC(C)(C)C (stereo unspecified) | – | – | – | 81 h | 5.1 L/kg | 1.1 mL/min/kg | 56 h | – | 41 mL/min/kg | 0.14 | – | – | – | –
COc1cc2c(c(OC)c1OC)-c1ccc(OC)c(=O)cc1[C@@H](NC(C)=O)CC2 | 31.4 L/kg | 34.3 mL/min/kg | – | 49 h | 6.1 L/kg | 2.1 mL/min/kg | 58 h | – | – | – | – | – | – | –
C[C@@H]1O[C@@H]1P(=O)(O)O | – | – | – | 2.7 h | 0.32 L/kg | 2 mL/min/kg | 1.9 h | 0.77 L/kg | 6.9 mL/min/kg | 1 | – | – | – | –
